Results on eleven molecules are retold here after PubChem BioAssay (NCI).

Experiment in all cases: NCI anticancer screen, dose series, 48 h
Assay [1] concerns SK-MEL-5 melanoma.
The test system of assay [2] is SF-539 CNS.
Assay [3] has as its system HL-60(TB) leukemia.
The subject of assay [4] is DLD-1 colon.
The subject of assay [5] is K-562 leukemia.
Assay [6] has as its system IGROV1 ovarian.
The subject of assay [7] is SNB-78 CNS.
Assay [8] deals with SK-MEL-2 melanoma.
Assay [9] has as its system MALME-3M melanoma.
Assay [10] deals with MDA-MB-435.

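Assay format: 96-well plates, 48-hour exposure. At the GI50, growth is halved. The concentration for full growth arrest is given as TGI.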

Take `CCN(CC)CC(=O)NC1c2ccccc2Oc2ccccc21`: the TGI in assay [1], in assay [2], in assay [3], in assay [4], in assay [5] and in assay [6] was greater than 100 µM throughout. This molecule also displayed a TGI in assay [7] greater than 100 µM.
Take `O=C1C2C3CC4C5C3C1C5C1(SCCS1)C42` (centres undefined): the TGI in assay [1], in [2], in assay [3], in [4], in [5] and in assay [8] was greater than 100 µM throughout. For the same molecule, the TGI in [6], in assay [9] and in assay [7] was greater than 100 µM throughout.
`COC(=O)C(=O)C(C#N)c1nc2ccccc2s1` (centres undefined): the TGI in assay [1], in [2], in [3], in assay [4], in assay [5] and in [8] was greater than 100 µM each time. For the same molecule, the TGI in assay [6], in [9] and in [7] was greater than 100 µM throughout.
Consider `CC(=O)OCC1C(=O)OCC1C(=O)N1Cc2cc3ccccc3nc2C1` (centres undefined), for which the TGI in assay [1] worked out at 23.1 µM; in [2] it was 17.8 µM; in assay [3], 11.9 µM; in assay [4], 3.37 µM; in assay [5], 9.76 µM; in assay [8] it was 22.9 µM. The TGI in assay [6] amounted to 24 µM; in assay [9], 3.16 µM; in assay [10], 11.9 µM.
Consider `CC(=O)C1(O)CC2(c3ccccc3)C(=O)C1(c1ccccc1)C(c1ccccc1)=C2c1ccccc1` (centres undefined), for which the TGI in assay [1], in assay [2], in assay [3], in assay [4], in [5] and in assay [6] was greater than 100 µM in each case. For the same molecule, the TGI in [9] and in assay [7] was greater than 100 µM throughout.
As for `COc1nc(NC2OC(COC(C)=O)C(OC(C)=O)C(OC(C)=O)C2OC(C)=O)c(N=CC=Nc2c(NC3OC(COC(C)=O)C(OC(C)=O)C(OC(C)=O)C3OC(C)=O)nc(OC)[nH]c2=O)c(=O)[nH]1` (centres undefined), the TGI in [1], in assay [2], in [3], in assay [4], in assay [5] and in [6] was greater than 100 µM in each case. The molecule further yielded a TGI in assay [9] greater than 100 µM.
Regarding `CNC(=O)Oc1cc(C(C)C)ccc1Sc1ccc(C(C)C)cc1OC(=O)NC`, the GI50 is 2.5 µM in assay [1]; 4.07 µM in [2]; 3.06 µM in assay [3]; 1.27 µM in assay [5]; 4.21 µM in assay [8]; 4.98 µM in assay [6]. Besides, the figures for the GI50 in assay [9] and in [10] were 4.75 µM and 2.29 µM, respectively. For the same molecule, the TGI in assay [1] stood at 11.8 µM; in assay [2], 17.1 µM; in assay [3], 12.7 µM; in assay [5], 14.5 µM; in [8], 17.3 µM; in [6] it was 23.8 µM. Also, the results for the TGI in [9] and in [10] were 20.5 µM and 10 µM, respectively.
`COc1cc2cc(NCc3cccc(Cl)c3)nc(C)c2cc1OC`: the GI50 was 3.27 µM in assay [1]; 1.37 µM in [2]; 2.95 µM in assay [3]; 1.68 µM in assay [5]; 1.56 µM in assay [8]; 1.32 µM in assay [6]. The GI50 in assay [9] is 10.3 µM; in assay [10], 0.969 µM. The TGI came out at 13.7 µM in [1]; 7.54 µM in assay [2]; 55.9 µM in assay [3]; 19.8 µM in assay [5]; 12.6 µM in assay [8]; 13.9 µM in assay [6]. Also, the TGI worked out at 23.8 µM in assay [9] and 6.26 µM in assay [10].
Take `O=C(/C=C\c1ccc(O)c(O)c1)c1ccccc1O`: the GI50 in assay [1] is 11.4 µM; in assay [2], 6.69 µM; in assay [3], 2.4 µM; in assay [5], 12.5 µM; in [8], 12 µM; in assay [6], 0.711 µM. For the same molecule, the GI50 in assay [9] was 11.4 µM; in assay [10] it was 6.45 µM. For the same molecule, the TGI in [1] stood at 28.4 µM; in assay [2], 26.5 µM; in [3], 6.05 µM; in assay [5], 71.5 µM; in assay [8] it was 41.7 µM; in assay [6], 23.8 µM. Also, the TGI in assay [9] is 32.5 µM; in assay [10], 39.4 µM.
For `COc1ccc(-c2nc3sc(-c4cc(OC)c(OC)c(OC)c4)nn3c2/C=C2/C(=O)Nc3ccc(F)cc32)cc1`, the GI50 in assay [1] is 1.64 µM; in assay [2] it was 56 µM; in assay [3], 2.17 µM; in [5], 13.1 µM; in [8] it was 5.58 µM; in [6], 3.39 µM. Further, the results for the GI50 in assay [9] and in assay [10] were 9.15 µM and 3.39 µM, respectively. Besides, the TGI was 3.65 µM in assay [1]; greater than 100 µM in [2]; 70.3 µM in assay [3]; greater than 100 µM in assay [5]; 17.6 µM in assay [8]; 12.7 µM in assay [6]. In addition, the TGI in assay [9] was 29.9 µM; in assay [10] it was 14 µM.
Consider `Cc1cc(I)cc(CNCCN(C)C)c1O`, for which the GI50 in assay [1] is 27.9 µM; in assay [2] it was greater than 89.9 µM; in assay [3], 57.8 µM; in assay [5], greater than 76.1 µM; in assay [8] it was greater than 77.2 µM; in [6], 48.4 µM. Moreover, the GI50 in assay [9] was greater than 87.8 µM; in [10], 37.1 µM. Also, the TGI was greater than 80.8 µM in [1]; greater than 100 µM in assay [2]; greater than 100 µM in assay [3]; greater than 100 µM in assay [5]; greater than 100 µM in [8]; greater than 100 µM in assay [6]. Moreover, the TGI in assay [9] and in assay [10] was greater than 100 µM in each case.
